Assays:
A431 WT = assay: Cell proliferation assay (CellTiter-Glo), A431 WT; type: cell-based; settings: Homo sapiens, A-431; A431 WT cells, 72 hour incubation, CTG readout
Experimental: (§1) • DMEM Medium (Gibco, Cat#11965118) • RPMI1640 Medium (Gibco, Cat#11875119) • Fetal Bovine Serum (FBS) (GBICO, Cat#10099-141) • CellTiter-Glo® Luminescent Cell Viability Assay Kit (Promega, Cat#G7572) 96-well, Black, Clear Flat Bottom Plate (Corning®, Cat# 3603)
(§2) • SpectraMax Multimode Microplate Reader MD, 2104-0010A; • CO2 Incubator, Thermo Scientific 3100 Series; • Biosafety Cabinet, Thermo Scientific, 1300 Series A2; • Inverted Microscope, Olympus, CKX41SF; • Siemens Refrigerator, KK25E76TI.
(§3) • 1. Cell Culture and Inoculation: • (1) Harvest cells in a logarithmic growth phase and count the cells using a […]. Test cell viability using a trypan blue exclusion method to ensure that cell viability is above 90%. • (2) Adjust the cell concentration to desired final density; and add 90 µL of cell suspension to a 96-well plate. • (3) Incubate the cells overnight at 37°C, under 5% CO2 and 95% humidity in the 96-well plate. • 2. T0 Reference Data: • (1) Add 10 µL PBS to each well of the T0 plate containing cells. • (2) Thaw the CTG reagent and equilibrate the plate to room temperature for 30 minutes. • (3) Add an equal volume of CTG solution to each well. • (4) Lyse cells by shaking on an orbital shaker for 5 minutes. • (5) Leave the plate at room temperature for 20 minutes to stabilize the luminescence signal. • (6) Read the T0 […]. • 3. Compound Dilution and Addition • (1) Add a corresponding volume of DMSO to a corresponding compound powder according to the compound information sheet to prepare a 10 mM stock solution. • (2) Prepare 1000-fold and 3.16-fold diluted compound solutions. • (3) Dilute the 1000× diluted compound solution 100-fold with PBS to prepare a 10-fold compound solution, with a maximum concentration of 10 µM, nine concentrations and 3.16-fold dilution. Then add 10 µL of the drug solution concentration to individual wells of the 96-well plate seeded with cells. Test each compound concentration in triplicate wells, and the final DMSO concentration is 0.1%. • (4) Incubate the cells in the 96-well plate containing the drug compounds at 37°C, under 5% CO2, and 95% humidity for an additional 72 hour period prior to performing the CTG analysis. • 4. Fluorescence Signal Reading • (1) Thaw the CTG reagent and equilibrate the plate to room temperature for 30 minutes. • (2) Add an equal volume of CTG solution to each well. • (3) Lyse cells by shaking on an orbital shaker for 5 minutes. • (4) Leave the plate at room temperature for 20 minutes to stabilize the […]. • (5) Read fluorescence value. • 5. Data Processing
(§4) Analyze the data by using GraphPad Prism 7.0 software, and use Non-linear S-curve regression to fit the dose-response curves, to calculate the IC50 values (in nM). The specific experiment results are presented in Table 1: [formula] Table 1: Biology Test Results

[1] = tested on: Ba/F3 EGFR-L858R-T790M-C797S (LTC); assay: Cell proliferation assay (CellTiter-Glo), Ba/F3 LTC; type: cell-based; settings: Mus musculus, BaF3; Ba/F3 EGFR-L858R-T790M-C797S cells, 72 hour incubation, CTG readout
Experimental: as §1, §2, §3, §4

[2] = tested on: Ba/F3 EGFR-L858R-C797S (LC); assay: Cell proliferation assay (CellTiter-Glo), Ba/F3 LC; type: cell-based; settings: Mus musculus, BaF3; Ba/F3 EGFR-L858R-C797S cells, 72 hour incubation, CTG readout
Experimental: as §1, §2, §3, §4

[3] = tested on: Ba/F3 EGFR-DEL19-T790M-C797S (DTC); assay: Cell proliferation assay (CellTiter-Glo), Ba/F3 DTC; type: cell-based; settings: Ba/F3 EGFR-DEL19-T790M-C797S cells, 72 hour incubation, CTG readout; read-out: IC50 BaF3 DTC
Experimental: as §1, §2, §3, §4

[4] = tested on: Ba/F3 EGFR-DEL19-C797S (DC); assay: Cell proliferation assay (CellTiter-Glo), Ba/F3 DC; type: cell-based; settings: Mus musculus, BaF3; Ba/F3 EGFR-DEL19-C797S cells, 72 hour incubation, CTG readout
Experimental: as §1, §2, §3, §4

[5] = Pharmacokinetic experiment in mice; type: in vivo; settings: male, mouse; ICR mice, single oral administration (PO), 10 mg/kg, plasma
Text: The purpose of this trial is to study the pharmacokinetic behavior of some compounds of the present invention, and the administration method is: Single oral administration (PO) to ICR mice.
The compounds used in this trial are from the compounds in the specific examples of the present invention and the listed positive compounds.
ICR mice male N=9 original source: Shanghai Sippr-Bk Lab Animal Co., Ltd.
The compounds are weighed and dissolved in the corresponding solution (10% PG + 10% Solutol® + 80% pH3 citrate buffer). The mixture is then shaken well and sonicated to prepare a 1 mg/mL stock solution. Nine mice are orally administered at a dose of 10 mg/kg (or IV 2 mg/kg) after an overnight fast.
About 90 µL of blood is collected via the submandibular vein per time point, heparin sodium anticoagulant is added, the sample is placed on ice after collection, and plasma is centrifuged within 1 hour (centrifugation conditions: 8,000 rpm, 6 minutes, 2-8°C). The blood collection timepoints are 0, 0.25, 0.5, 1, 2, 4, 6, 8 and 24 h. The samples are stored in a -20°C refrigerator.
The plasma sample is 40 µL, 160 µL of ice-cold acetonitrile containing internal standard is added, vortexed for 3 minutes, and centrifuged at 11,000 rpm for 5 minutes. 100 µL of the supernatant is taken and added to 100 µL of water, 5 µL of the sample is taken and injected into LC/MS/MS for analysis.

| SMILES | IC50 (A431 WT) | IC50 [1] | IC50 [2] | IC50 [3] | IC50 [4] | AUC(0-t) [5] | Cmax [5] | half-life [5] |
| --- | --- | --- | --- | --- | --- | --- | --- | --- |
| CN1CCC(C#Cc2nn3c4cc(ncc24)Nc2ccnc(n2)-c2cnn(C)c2OCC2(CCCC2)C3)C1 (stereo not drawn) [Example 2, 1'-methyl-3-((1-methylpyrrolidin-3-yl)ethynyl)spiro(cyclopentane-1,6'-8-oxa-3-aza-4(6,1)-pyrazolo[4,3-c]pyridina-2(2,4)-pyrimidina-1(4,5)-pyrazolacyclooctaphane)] | 0.603 µM | 0.0128 µM | 0.0211 µM | 0.0175 µM | 0.0304 µM |  |  |  |
| CN1CCC(C#Cc2nn3c4cc(ncc24)Nc2ccnc(n2)-c2cnn(C)c2OCC2(CCOCC2)C3)CC1 [Example 4, 1'-methyl-3'-((1-methylpiperidin-4-yl)ethynyl)-2,3,5,6-te trahydrospiro(pyran-4,6'-8-oxa-3-aza-4(6,1)-pyrazolo[4,3-c]pyridina-2(2,4)-pyrimidina-1(4,5)-pyrazolacyclooctaphane)] | 0.822 µM | 0.0124 µM | 0.0503 µM | 0.0156 µM | 0.0268 µM |  |  |  |
| CN1CCC(C#Cc2nn3c4cc(ncc24)Nc2ccnc(n2)-c2cnn(C)c2OCC2(CCC2)C3)CC1 [Example 5, 1'-methyl-3'-((1-methylpiperidin-4-yl)ethynyl)spiro(cyclobutane-1,6'-8-oxa-3-aza-4(6,1)-pyrazolo[4,3-c]pyridina-2(2,4)-pyrimidina-1(4,5)-pyrazolacyclooctaphane)] | 1.08 µM | 0.0092 µM | 0.014 µM | 0.0047 µM | 0.0197 µM |  |  |  |
| CN1CC(C#Cc2nn3c4cc(ncc24)Nc2ccnc(n2)-c2cnn(C)c2OCC2(CCCC2)C3)C1 [Example 8, 1'-methyl-3'-((1-methylazetidin-3-yl)ethynyl)spiro(cyclopentane-1,6'-8-oxa-3-aza-4(6,1)-pyrazolo[4,3-c]pyridina-2(2,4)-pyrimidina-1(4,5)-pyrazolacyclooctaphane)] | 0.499 µM | 0.0394 µM | 0.0635 µM | 0.0278 µM | 0.0315 µM |  |  |  |
| CN1CCC(F)(C#Cc2nn3c4cc(ncc24)Nc2ccnc(n2)-c2cnn(C)c2OCC2(CCCC2)C3)CC1 [Example 9, 3'-((4-fluoro-1-methylpiperidin-4-yl)ethynyl)-1'-methyls piro(cyclopentane-1,6'-8-oxa-3-aza-4(6,1)-pyrazolo[4,3-c]pyridina-2(2,4)-pyrimidina-1(4,5)-pyrazolacyclooctaphane)] | 1.92 µM | 0.047 µM | 0.0627 µM | 0.0184 µM | 0.0328 µM |  |  |  |
| CN1CCC(F)(C#Cc2nn3c4cc(ncc24)Nc2ccnc(n2)-c2cnn(C)c2OCC2(CCOCC2)C3)CC1 [Example 11, 3'-((4-fluoro-1-methylpiperidin-4-yl)ethynyl)-1'-methyl-2,3,5,6-tetrahydrospiro(pyran-4,6'-8-oxa-3-aza-4(6,1)-pyrazolo[4,3-c]pyridina-2(2,4)-pyrimidina-1(4,5)-pyrazolacyclooctaphane)] | 0.807 µM | 0.133 µM | 0.187 µM | 0.0922 µM | 0.128 µM |  |  |  |
| Cn1ncc2c1OCC1(CCCC1)Cn1nc(N3CC[C@@H](CO)C3)c3cnc(cc31)Nc1ccnc-2n1 [Example 21, (R)-(1-(1'-methylspiro(cyclopentane-1,6'-8-oxa-3-aza-4(6,1)-pyrazolo[4,3-c]pyridina-2(2,4)-pyrimidina-1(4,5) -pyrazolacyclooctaphane)-3 '-yl)pyrrolidin-3-yl)methanol] | 0.171 µM | 0.0047 µM | 0.0158 µM | 0.0034 µM | 0.0071 µM |  |  |  |
| Cn1ncc2c1OCC1(CCCC1)Cn1nc(N3CC[C@@H](O)C3)c3cnc(cc31)Nc1ccnc-2n1 [Example 22, (R)-1-(1'-methylspiro(cyclopentane-1,6'-8-oxa-3-aza-4(6,1)-pyrazolo[4,3-c]pyridina-2(2,4)-pyrimidina-1(4,5)-pyrazolacyclooctaphane)-3' -yl)pyrrolidin-3-ol] | 0.409 µM | 0.0059 µM | 0.0132 µM |  |  | 2.34 µg·h/mL | 0.503 µg/mL | 3 h |
| Cn1ncc2c1OCC1(CCCC1)Cn1nc(N3CC[C@](C)(O)C3)c3cnc(cc31)Nc1ccnc-2n1 [Example 23, (S)-3-methyl-1-(1'-methylspiro(cyclopentane-1,6'-8-oxa-3-aza-4(6,1)-pyrazolo[4,3-c]pyridina-2(2,4)-pyrimidina-1(4,5)-pyrazolacyclooctaphane)-3'-yl)pyrrolidin-3-ol] | 0.771 µM | 0.0081 µM | 0.0195 µM | 0.0035 µM | 0.0078 µM |  |  |  |
| Cn1ncc2c1OCC1(CCCC1)Cn1nc(N3CC[C@@](C)(O)C3)c3cnc(cc31)Nc1ccnc-2n1 [Example 24, (R)-3-methyl-1-(1'-methylspiro(cyclopentane-1,6'-8-oxa-3-aza-4(6,1)-pyrazolo[4,3-c]pyridina-2(2,4)-pyrimidina-1(4,5)-pyrazolacyclooctaphane)-3'-yl)pyrrolidin-3-ol] | 0.378 µM | 0.0061 µM |  | 0.0007 µM | 0.0044 µM |  |  |  |
| Cn1ncc2c1OCC1(CCC1)Cn1nc(N3CC(CS(C)(=O)=O)C3)c3cnc(cc31)Nc1ccnc-2n1 [Example 25, 1'-methyl-3'-(3-((methylsulfonyl)methyl)azetidin-1-yl)s piro(cyclobutane-1,6'-8-oxa-3-aza-4(6,1)-pyrazolo[4,3-c]pyridina-2(2,4)-pyrimidina-1(4,5)-pyrazolacyclooctaphane)] | 0.571 µM | 0.106 µM | 0.123 µM | 0.0426 µM | 0.0665 µM |  |  |  |
| Cn1ncc2c1OCC1(CCCC1)Cn1nc(N3CC(CS(C)(=O)=O)C3)c3cnc(cc31)Nc1ccnc-2n1 [Example 26, 1'-methyl-3'-(3-((methylsulfonyl)methyl)azetidin-1-yl)s piro(cyclopentane-1,6'-8-oxa-3-aza-4(6,1)-pyrazolo[4,3-c]pyridina-2(2,4)-pyrimidina-1(4,5)-pyrazolacyclooctaphane)] | 0.645 µM | 0.0285 µM | 0.0335 µM | 0.0163 µM | 0.0114 µM |  |  |  |
| Cn1ncc2c1OCC1(CCCC1)Cn1nc(N3CC[C@H](CS(=O)(=O)C4CC4)C3)c3cnc(cc31)Nc1ccnc-2n1 [Example 40, (S)-3'-(3-((cyclopropylsulfonyl)methyl)pyrrolidin-1-yl)-1'-methylspiro(cyclopentane-1,6'-8-oxa-3-aza-4(6,1)-pyrazolo[4,3-c]pyridina-2(2, 4)-pyrimidina-1(4,5)-pyrazolacyclooctaphane)] | 0.321 µM | 0.0007 µM | 0.0021 µM |  |  | 4.94 µg·h/mL | 1.35 µg/mL | 3.5 h |

Source: patent EP4563579A1, “MACROCYCLIC EGFR INHIBITOR, AND PREPARATION METHOD THEREFOR AND PHARMACEUTICAL USE THEREOF” (Abbisko Therapeutics Co., Ltd., priority 2022, dated 2024)
